Measurements reported in patent publication EP1892243A1, “Polymorphic forms of ziprasidone sulphate salts” (KRKA, tovarna zdravil, d.d., Novo mesto, priority 2006, dated 2008).
Structures can show the parent of a compound that is named as a salt.

How the values were obtained:
Water-sorption analysis = format: physicochemical; details: for release of crystal water: at 0 % RH, nitrogen flow 200 ml/min; for release of crystal water / water sorption started at: 25°C; for water sorption started at: cycles from 0 % RH to 95 % RH
Protocol: An amount of 20 mg of zipasidone hydrogensulphate dihydrate was exposed to a water-sorption analysis (Surface Measurement Systems Ltd., London, UK; two complete 11-step circles from 0 % RH to 95 % RH at the temperature 25°C and nitrogen flow rate 200 ml/min; minimal retention time at the step when dm/dt < 0.002% is 10 minutes and maximal 360 minutes) and compared to the same test of Ziprasidone hydrochloride monohydrate.

[1] = Particle size by laser light scattering; format: physicochemical; details: drug substance used in the compositions of Example 12
Protocol: The average particle size is determined by laser light scattering using a Malvern-Mastersizer Apparatus MS 2000. The particles to be subjected to the particle size measurement are first suspended in isoparafinic oil (Isopar®) and then subjected to a size determination in a Malvern Mastersizer MS 2000 instrument. Usually, 100-800 mg of substance is dispersed in 5-8 ml of […]. According to manufacturer's information, the Malvern Mastersizers allow for a measurement of particle size distributions in the range of 20 nm to 2000 µm, with a precision of better than 0.5%. Particle sizes are determined by measuring the angular distribution of laser light scattered by a homogeneous suspension of particles. The size distribution is determined from the light scattering data using the theory of light scattering developed by Gustav Mie.

[2] = 2 weeks

Row | Compound | release of crystal water (Water-sorption analysis) | water sorption started at (Water-sorption analysis) [% RH] | stability to hydratation (Water-sorption analysis; compared with Ziprasidone hydrochloride salt) | Particle size [1] [µm] | HPLC purity of Ziprasidone after two-week stability test [2] [%]
1 | O=C1Cc2cc(CCN3CCN(c4nsc5ccccc45)CC3)c(Cl)cc2N1 [Ziprasidone hydrochloride monohydrate, reference compound] | release crystal water | 30 |  |  | 
2 | O.O.O=C1Cc2cc(CCN3CCN(c4nsc5ccccc45)CC3)c(Cl)cc2N1.O=S(=O)(O)O [Ziprasidone hydrogensulphate dihydrate, 5-[2-[4-(1,2-benzisothiazol-3-yl)-1-piperazinyl]ethyl]-6-chloro-1,3-dihydro-2H-indol-2-one hydrogensulphate dihydrate] | does not release crystal water | 50 | more stable to hydratation | 26 | 99.7
